target: RAC-alpha serine/threonine-protein kinase (Homo sapiens, UniProt P31749); test: Inhibition of AKT phosphorylation in human OVCAR-8 cells assessed as reduction in pAKT level incubated for 24 hrs by Western blot analysis
Sequence (P31749 whole entry): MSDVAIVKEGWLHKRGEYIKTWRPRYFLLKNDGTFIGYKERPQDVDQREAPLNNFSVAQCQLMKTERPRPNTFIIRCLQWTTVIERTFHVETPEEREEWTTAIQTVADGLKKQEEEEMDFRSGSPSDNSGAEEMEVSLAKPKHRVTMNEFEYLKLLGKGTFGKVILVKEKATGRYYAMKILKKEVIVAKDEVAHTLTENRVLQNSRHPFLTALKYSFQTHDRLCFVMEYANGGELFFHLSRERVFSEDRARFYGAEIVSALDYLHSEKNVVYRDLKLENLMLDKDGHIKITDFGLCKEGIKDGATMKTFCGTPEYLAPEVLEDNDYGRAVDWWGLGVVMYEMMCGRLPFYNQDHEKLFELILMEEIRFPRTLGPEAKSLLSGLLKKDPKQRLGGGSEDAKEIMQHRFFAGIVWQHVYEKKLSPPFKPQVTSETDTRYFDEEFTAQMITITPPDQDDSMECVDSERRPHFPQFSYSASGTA

| IC50 [µM] | SMILES |
| --- | --- |
| 0.04 | O=C1NC(=O)C(Cc2ccc3nccc(-c4ccncc4)c3c2)S1 (centres undefined) |
| 0.076 | c1cc(-c2ccnc3ccc(-c4cnc5[nH]ncc5c4)cc23)ccn1 |
| 0.049 | Nc1ncc(-c2ccc3nccc(-c4ccncc4)c3c2)cc1S(N)(=O)=O |
| 0.007 | O=S(=O)(Nc1cncc(-c2ccc3nccc(-c4ccncc4)c3c2)c1)c1ccccc1F |
